US12502362B2, “Inhibitors of nucleotidyltransferase superfamily enzymes as antibiotics” (priority 2017, dated 2025)
Read-outs that look alike come from different tables or passages of the source.

Tests used:
Klebsiella pneumonia = experiment: Antibiotic susceptibility of Klebsiella pneumonia strains; type: cell-based
Text: (§1) All these MDR-bacteria are at least resistant to two classes of the antibiotics among five groups and/or specific antibiotics including quinolones/fluorquinolones, carbapenems, cephalosporins, aminoglycosides and piperacillin-tazobactam.

Citrobacter koseri = experiment: Antibiotic susceptibility of Citrobacter koseri strain; type: cell-based; conditions: Ck1 (Citrobacter koseri)
Text: as §1

[1] = tested on: Enterobacter cloacae complex; experiment: Antibiotic susceptibility of Enterobacter cloacae complex strain; type: cell-based; conditions: Ecc1 (Enterobacter cloacae complex)
Text: as §1

Morganella morganii = experiment: Antibiotic susceptibility of Morganella morganii strain; type: cell-based; conditions: Mm1 (Morganella morganii)
Text: as §1

MDR E. coli = type: cell-based
Text: as §1

[2] = tested on: MDR Acinetobacter baumannii; type: cell-based
Text: as §1

[3] = tested on: Staphylococcus epidermidis; type: cell-based
Procedure: (§2) It was also tested whether compounds #63 and #285 can inhibit other coagulase-negative Staphylococcus (CNS) including S. epidermidis, S. hominis, etc. […].

Staphylococcus hominis = type: cell-based
Procedure: as §2

[4] = tested on: S. aureus ATCC strains and MRSA; type: cell-based, Staphylococcus aureus
[5] = tested on: Coagulase negative Staphylococcus; experiment: Antibiotic susceptibility of coagulase negative Staphylococcus strains; type: cell-based
[6] = CNS1 (Coagulase negative Staphylococcus)
[7] = CNS2 (Coagulase negative Staphylococcus)

In the case of Amoxicillin-clavulanic acid [AMC], the Antibiotic susceptibility (Klebsiella pneumonia; Kp1 (Klebsiella pneumonia)) is reported as “S”, the Antibiotic susceptibility (Klebsiella pneumonia; Kp6 (Klebsiella pneumonia)) is reported as “I” and the Antibiotic susceptibility (Citrobacter koseri) is reported as “I”. The Antibiotic susceptibility [1] was “R”, the Antibiotic susceptibility (Morganella morganii) was “R” and the Antibiotic susceptibility (MDR E. coli; Ec1 (E. coli)) was “S”. For the same substance, the Antibiotic susceptibility (MDR E. coli; Ec2 (E. coli)) was “S”, the Antibiotic susceptibility (MDR E. coli; Ec3 (E. coli)) was “S” and the Antibiotic susceptibility (MDR E. coli; Ec4 (E. coli)) was “S”. For the same substance, the Antibiotic susceptibility (MDR E. coli; Ec5 (E. coli)) was “I”, the Antibiotic susceptibility ([2]; Ab1 (Acinetobacter baumannii)) was “R” and the Antibiotic susceptibility ([2]; Ab2 (Acinetobacter baumannii)) was “R”. The Antibiotic susceptibility ([2]; Ab3 (Acinetobacter baumannii)) was “R”, the Antibiotic susceptibility ([2]; Ab4 (Acinetobacter baumannii)) was “R” and the Antibiotic susceptibility ([2]; Ab5 (Acinetobacter baumannii)) was “S”.

With Gentamicin the Antibiotic susceptibility (Klebsiella pneumonia; Kp1 (Klebsiella pneumonia)) was “S”, the Antibiotic susceptibility (Klebsiella pneumonia; Kp6 (Klebsiella pneumonia)) was “S” and the Antibiotic susceptibility (Citrobacter koseri) was “R”. The Antibiotic susceptibility [1] was “R”, the Antibiotic susceptibility ([3]; Se1 (Staphylococcus epidermidis)) was “S” and the Antibiotic susceptibility ([3]; Se2 (Staphylococcus epidermidis)) was “S”. For the same substance, the Antibiotic susceptibility ([3]; Se3 (Staphylococcus epidermidis)) was “R”, the Antibiotic susceptibility ([3]; Se4 (Staphylococcus epidermidis)) was “R” and the Antibiotic susceptibility ([3]; Se5 (Staphylococcus epidermidis)) was “I”. The Antibiotic susceptibility (Staphylococcus hominis; Sh1 (Staphylococcus hominis)) was “S”, the Antibiotic susceptibility (Staphylococcus hominis; Sh2 (Staphylococcus hominis)) was “S” and the Antibiotic susceptibility (Staphylococcus hominis; Sh3 (Staphylococcus hominis)) was “S”. The Antibiotic susceptibility ([4]; S. aureus ATCC 25923) was “S”, the Antibiotic susceptibility ([4]; S. aureus ATCC 29213) was “S” and the Antibiotic susceptibility ([4]; S. aureus ATCC BAA 976) was “S”. For the same substance, the Antibiotic susceptibility ([4]; S. aureus ATCC BAA 977) was “S”, the Antibiotic susceptibility ([4]; S. aureus ATCC BAA 1026) was “R” and the Antibiotic susceptibility ([4]; Sa1 (MRSA)) was “S”. The Antibiotic susceptibility ([4]; Sa2 (MRSA)) was “S”, the Antibiotic susceptibility ([4]; Sa3 (MRSA)) was “S” and the Antibiotic susceptibility ([4]; Sa5 (MRSA)) was “S”. The Antibiotic susceptibility ([4]; Sa6 (MRSA)) was “S”, the Antibiotic susceptibility ([4]; Sa7 (MRSA)) was “S” and the Antibiotic susceptibility ([4]; Sa8 (MRSA)) was “S”. The Antibiotic susceptibility ([4]; Sa9 (MRSA)) was “S”, the Antibiotic susceptibility ([4]; Sa10 (MRSA)) was “S” and the Antibiotic susceptibility ([4]; Sa11 (MRSA)) was “S”. For the same substance, the Antibiotic susceptibility ([4]; Sa12 (MRSA)) was “S”, the Antibiotic susceptibility ([4]; Sa14 (MRSA)) was “S” and the Antibiotic susceptibility ([4]; Sa15 (MRSA)) was “S”. The Antibiotic susceptibility ([4]; Sa16 (MRSA)) was “S”, the Antibiotic susceptibility ([4]; Sa17 (MRSA)) was “S” and the Antibiotic susceptibility ([4]; Sa18 (MRSA)) was “S”. The Antibiotic susceptibility ([4]; Sa19 (MRSA)) was “S”, the Antibiotic susceptibility ([4]; Sa20 (MRSA)) was “S” and the Antibiotic susceptibility ([4]; Sa21 (MRSA)) was “S”. The Antibiotic susceptibility ([4]; Sa22 (MRSA)) was “S”, the Antibiotic susceptibility ([4]; Sa23 (MRSA)) was “S” and the Antibiotic susceptibility (Morganella morganii) was “R”. The Antibiotic susceptibility [5, 6] was “S”, the Antibiotic susceptibility [5, 7] was “S” and the Antibiotic susceptibility (MDR E. coli; Ec1 (E. coli)) was “R”. For the same substance, the Antibiotic susceptibility (MDR E. coli; Ec2 (E. coli)) was “R”, the Antibiotic susceptibility (MDR E. coli; Ec3 (E. coli)) was “R” and the Antibiotic susceptibility (MDR E. coli; Ec4 (E. coli)) was “S”. The Antibiotic susceptibility (MDR E. coli; Ec5 (E. coli)) was “S”, the Antibiotic susceptibility ([2]; Ab1 (Acinetobacter baumannii)) was “S” and the Antibiotic susceptibility ([2]; Ab2 (Acinetobacter baumannii)) was “R”. For the same substance, the Antibiotic susceptibility ([2]; Ab3 (Acinetobacter baumannii)) was “R”, the Antibiotic susceptibility ([2]; Ab4 (Acinetobacter baumannii)) was “R” and the Antibiotic susceptibility ([2]; Ab5 (Acinetobacter baumannii)) was “R”.

With Piperacillin-tazobactam [TZP] the Antibiotic susceptibility (Klebsiella pneumonia; Kp1 (Klebsiella pneumonia)) was “S”, the Antibiotic susceptibility (Klebsiella pneumonia; Kp6 (Klebsiella pneumonia)) was “R” and the Antibiotic susceptibility (Citrobacter koseri) was “I”. For the same substance, the Antibiotic susceptibility [1] was “R”, the Antibiotic susceptibility (Morganella morganii) was “S” and the Antibiotic susceptibility (MDR E. coli; Ec1 (E. coli)) was “S”. The Antibiotic susceptibility (MDR E. coli; Ec2 (E. coli)) was “S”, the Antibiotic susceptibility (MDR E. coli; Ec3 (E. coli)) was “S” and the Antibiotic susceptibility (MDR E. coli; Ec4 (E. coli)) was “S”. For the same substance, the Antibiotic susceptibility (MDR E. coli; Ec5 (E. coli)) was “S” and the Antibiotic susceptibility ([2]; Ab3 (Acinetobacter baumannii)) was “R”.

With Trimethoprim-Sulfamethoxazole [SXT] the Antibiotic susceptibility (Klebsiella pneumonia; Kp1 (Klebsiella pneumonia)) was “R”, the Antibiotic susceptibility (Klebsiella pneumonia; Kp6 (Klebsiella pneumonia)) was “R” and the Antibiotic susceptibility (Citrobacter koseri) was “R”. The Antibiotic susceptibility [1] was “S”, the Antibiotic susceptibility [3] was “R” and the Antibiotic susceptibility (Staphylococcus hominis) was “R and S”. The Antibiotic susceptibility ([4]; S. aureus ATCC 25923) was “S”, the Antibiotic susceptibility ([4]; S. aureus ATCC 29213) was “S” and the Antibiotic susceptibility ([4]; S. aureus ATCC BAA 976) was “S”. For the same substance, the Antibiotic susceptibility ([4]; S. aureus ATCC BAA 977) was “S”, the Antibiotic susceptibility ([4]; S. aureus ATCC BAA 1026) was “R” and the Antibiotic susceptibility ([4]; Sa1 (MRSA)) was “R”. The Antibiotic susceptibility ([4]; Sa2 (MRSA)) was “S”, the Antibiotic susceptibility ([4]; Sa3 (MRSA)) was “S” and the Antibiotic susceptibility ([4]; Sa5 (MRSA)) was “S”. The Antibiotic susceptibility ([4]; Sa6 (MRSA)) was “S”, the Antibiotic susceptibility ([4]; Sa7 (MRSA)) was “S” and the Antibiotic susceptibility ([4]; Sa8 (MRSA)) was “S”. For the same substance, the Antibiotic susceptibility ([4]; Sa9 (MRSA)) was “S”, the Antibiotic susceptibility ([4]; Sa10 (MRSA)) was “S” and the Antibiotic susceptibility ([4]; Sa11 (MRSA)) was “S”. For the same substance, the Antibiotic susceptibility ([4]; Sa12 (MRSA)) was “S”, the Antibiotic susceptibility ([4]; Sa14 (MRSA)) was “S” and the Antibiotic susceptibility ([4]; Sa15 (MRSA)) was “R”. The Antibiotic susceptibility ([4]; Sa16 (MRSA)) was “S”, the Antibiotic susceptibility ([4]; Sa17 (MRSA)) was “S” and the Antibiotic susceptibility ([4]; Sa18 (MRSA)) was “S”. For the same substance, the Antibiotic susceptibility ([4]; Sa19 (MRSA)) was “S”, the Antibiotic susceptibility ([4]; Sa20 (MRSA)) was “S” and the Antibiotic susceptibility ([4]; Sa21 (MRSA)) was “S”. The Antibiotic susceptibility ([4]; Sa22 (MRSA)) was “S”, the Antibiotic susceptibility ([4]; Sa23 (MRSA)) was “S” and the MRSA strains resistant ([4]; number of resistant strains out of 21 MRSA strains) was 2/21. For the same substance, the Antibiotic susceptibility (Morganella morganii) was “R”, the Antibiotic susceptibility [5, 6] was “S” and the Antibiotic susceptibility [5, 7] was “S”. For the same substance, the Antibiotic susceptibility (MDR E. coli; Ec1 (E. coli)) was “R”, the Antibiotic susceptibility (MDR E. coli; Ec2 (E. coli)) was “R” and the Antibiotic susceptibility (MDR E. coli; Ec3 (E. coli)) was “R”. For the same substance, the Antibiotic susceptibility (MDR E. coli; Ec4 (E. coli)) was “S”, the Antibiotic susceptibility (MDR E. coli; Ec5 (E. coli)) was “R” and the Antibiotic susceptibility ([2]; Ab1 (Acinetobacter baumannii)) was “R”. The Antibiotic susceptibility ([2]; Ab2 (Acinetobacter baumannii)) was “R”, the Antibiotic susceptibility ([2]; Ab3 (Acinetobacter baumannii)) was “R” and the Antibiotic susceptibility ([2]; Ab4 (Acinetobacter baumannii)) was “R”. For the same substance, the Antibiotic susceptibility ([2]; Ab5 (Acinetobacter baumannii)) was “R”.
